Test results as given in patent publication US10682323B2, “Therapeutic agent for glaucoma” (TOA EIYO LTD., priority 2016, dated 2020).

Target: T1, human sGC (Homo sapiens, UniProt Q02153)
T1 construct: expressed in transfected cells; host or cells: CHO-K1 cells (Chinese hamster ovary), stably co-expressing mouse CNGA2 as the calcium read-out channel
T1 sequence (Q02153 1-619): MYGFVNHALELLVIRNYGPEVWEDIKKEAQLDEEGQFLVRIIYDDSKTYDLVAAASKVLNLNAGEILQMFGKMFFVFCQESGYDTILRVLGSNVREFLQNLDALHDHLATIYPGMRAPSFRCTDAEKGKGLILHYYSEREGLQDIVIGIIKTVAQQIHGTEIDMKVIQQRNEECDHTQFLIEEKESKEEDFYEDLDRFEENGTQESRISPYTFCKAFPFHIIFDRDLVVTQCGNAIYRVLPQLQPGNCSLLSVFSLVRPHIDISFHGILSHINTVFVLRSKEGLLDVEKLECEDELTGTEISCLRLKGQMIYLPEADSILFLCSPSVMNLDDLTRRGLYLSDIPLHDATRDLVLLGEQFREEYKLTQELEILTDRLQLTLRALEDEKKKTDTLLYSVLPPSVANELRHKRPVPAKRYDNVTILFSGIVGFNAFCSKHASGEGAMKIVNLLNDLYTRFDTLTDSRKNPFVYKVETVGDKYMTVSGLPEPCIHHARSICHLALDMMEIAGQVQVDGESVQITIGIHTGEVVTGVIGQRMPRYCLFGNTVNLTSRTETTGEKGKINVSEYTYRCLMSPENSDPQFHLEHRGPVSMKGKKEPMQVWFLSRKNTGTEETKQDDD
T1 sequence (Q02108 1-690 partner): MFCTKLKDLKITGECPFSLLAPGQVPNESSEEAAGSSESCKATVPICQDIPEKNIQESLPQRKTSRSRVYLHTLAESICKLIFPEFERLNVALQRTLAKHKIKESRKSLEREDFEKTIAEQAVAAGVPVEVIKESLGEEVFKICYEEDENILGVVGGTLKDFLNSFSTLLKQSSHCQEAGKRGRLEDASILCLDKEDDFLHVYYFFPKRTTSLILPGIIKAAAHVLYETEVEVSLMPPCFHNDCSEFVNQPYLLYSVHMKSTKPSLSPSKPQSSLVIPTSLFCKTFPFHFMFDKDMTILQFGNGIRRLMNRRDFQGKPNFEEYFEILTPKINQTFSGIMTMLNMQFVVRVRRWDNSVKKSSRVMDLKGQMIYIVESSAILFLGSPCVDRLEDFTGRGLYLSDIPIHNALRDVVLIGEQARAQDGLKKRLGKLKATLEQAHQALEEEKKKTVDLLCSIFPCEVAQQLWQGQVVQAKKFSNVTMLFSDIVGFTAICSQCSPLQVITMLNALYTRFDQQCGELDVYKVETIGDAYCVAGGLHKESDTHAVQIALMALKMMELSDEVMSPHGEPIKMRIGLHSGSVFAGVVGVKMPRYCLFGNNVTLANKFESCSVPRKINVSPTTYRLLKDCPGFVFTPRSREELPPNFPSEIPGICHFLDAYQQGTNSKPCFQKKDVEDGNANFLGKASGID
Experiment: Measurement of sGC activating effect in CHO-K1 cells stably expressing human sGC and mouse CNGA2
Assay type: cell-based
Conditions: CHO-K1 cells expressing human sGC and mouse CNGA2, Fura2 calcium readout, 10 μmol/L ODQ in assay buffer
Protocol: Chinese Hamster ovary cells (CHO-K1 cells) modified for stably expressing human sGC α subunit and β subunit, and a mouse cyclic nucleotide gated channel (CNGA2) were used in the test.
The CHO-K1 cells stably expressing human sGC and mouse CNGA2 were cultured at 37° C. in a F-12 medium supplemented with 10% (v/v) fetal bovine serum (FBS), penicillin (100 U/mL), streptomycin (100 μg/mL), G418 (250 μg/mL), and Zeocin (250 μg/mL). The cells were suspended in a culture medium, seeded in a 96 well plate, and cultured at 37° C. for 24 hours. The cells were washed with an assay buffer 1 (140 mmol/L of sodium chloride, 5 mmol/L of potassium chloride, 0.5 mmol/L of magnesium chloride, 0.01 mmol/L of calcium chloride, 10 mmol/L of glucose, 0.4 mmol/L of magnesium sulfate, 10 mmol/L of 4-(2-hydroxyethyl)piperazine-1-yl ethanesulfonic acid, 125 μmol/L of sulfinpyrazone, pH 7.4), and then an indicator solution in which Fura2-AM as a fluorescent Ca2+ indicator is dissolved in assay buffer 1 at a concentration of 5 μmol/L was added thereto, and cultured at 37° C. for 60 minutes. The culture medium was removed, the cells were washed with assay buffer 1, the test compound solution was added thereto, and cultured at room temperature for 10 minutes. The plate was mounted on a fluorescence microplate reader (FlexStation II, available from Molecular Devices) with setting of excitation wavelengths of 340 and 380 nm and a detection wavelength of 510 nm, an intracellular calcium concentration was measured as a fluorescent intensity ratio obtained from each excitation wavelength.
In this test, the solution of the test compound was prepared by dissolving each test compound in DMSO at a concentration of 10 mmol/L, and then diluting the solution with assay buffer 2 (140 mmol/L of sodium chloride, 5 mmol/L of potassium chloride, 0.5 mmol/L of magnesium chloride, 1 mmol/L of calcium chloride, 10 mmol/L of glucose, 0.4 mmol/L of magnesium sulfate, 10 mmol/L of 4-(2-hydroxyethyl)piperazine-1-yl ethanesulfonic acid, 125 μmol/L of sulfinpyrazone, 100 μmol/L of isobutylmethylxanthine, 10 μmol/L of 1H-[1,2,4]-oxadiazole [4,3-a]quinoxaline-1-on (hereinafter, referred to as ODQ), pH 7.4), in order to adjust the concentration of 10 μmol/L for testing. As a control solution, a DMSO diluted solution was used, instead of the test compound solution.
The activity of the test compound was calculated as an increase rate (%) of the sGC activity in the test compound solution relative to the sGC activity in the control solution, by dividing a fluorescent intensity ratio in adding the test compound by a fluorescent intensity ratio of the control solution, and subtracting the sGC activity in the control solution (100%) therefrom. An EC50 value was calculated from the activity of the test compound at concentrations of 0.0001, 0.001, 0.003, 0.01, 0.03, 0.1, 1, and 10 μmol/L, using a 4 parameter losgistic model from Assay Explorer (available from Dssault Systèmes BIOVIA).

SMILES	EC50
O=C(O)CCCCN(CCc1ccccc1OCc1ccc(CCc2ccccc2)cc1)Cc1ccc(C(=O)O)cc1 [Comparative Compound 1, reference compound]	8.84 nM
O=C(O)CCCCN(CCc1ccccc1OCc1ccc(CCc2ccccc2)cc1)C1COc2cc(C(=O)O)ccc21 (stereo not shown) [Comparative Compound 2, reference compound]	19.4 nM
CC(C)(C)c1cc(CO[C@@H](CN(CCCCC(=O)O)Cc2ccc(C(=O)O)cc2)c2ccccc2)cc(C(C)(C)C)c1 [Comparative Compound 4, reference compound]	0.46 nM
N#Cc1cccc([C@H](CN(CCCCC(=O)O)Cc2ccc(C(=O)O)cc2)OCc2ccc(Oc3ccccc3)cc2)c1 [Comparative Compound 3, reference compound]	7.01 nM

The next lines start with the values.

EC50	SMILES
5.71 nM	O=C(O)CCCCN(Cc1ccc(C(=O)O)cc1)C[C@H](OCc1ccc(CCc2ccccc2)cc1)c1ccccc1 [Compound No. 14, (−)-4-([N-(4-carboxybutyl)-N-[(2R)-2-[4-(2-phenylethyl)benzyloxy]-2-phenylethyl]amino]methyl)benzoic acid]
3.14 nM	O=C(O)CCCCN(Cc1ccc(C(=O)O)cc1)C[C@H](OCc1ccc(CCc2ccc(Cl)cc2)cc1)c1ccccc1 [Compound No. 6, (−)-4-([N-(4-carboxybutyl)-N-[(2R)-2-[4-[2-(4-chlorophenyl)ethyl]benzyloxy]-2-phenylethyl]amino]methyl)benzoic acid]
6.62 nM	O=C(O)CCCCN(CCc1ccccc1OCc1cccc2c1CCCC2)[C@H]1CCCc2cc(C(=O)O)ccc21 [Compound No. 8, (+)-(5S)-5-[N-(4-carboxybutyl)-N-[2-[2-(5,6,7,8-tetrahydronaphthalene-1-ylmethoxy)phenyl]ethyl]amino]-5,6,7,8-tetrahydronaphthalene-2-carboxylic acid]
